Source: patent US7304186B2, “Synthetic method and novel chemical compounds” (Charterhouse Therapeutics Ltd., priority 2002, dated 2007)
Read-outs that look alike come from different tables or passages of the source.

Legend:
[1] = tested on: NF-κB; assay: EMSA of NF-κB DNA-binding activity in TPA-stimulated Jurkat T cells; assay type: cell-based, Human; details: for NF-κB inhibition (in words): TPA-stimulated, EMSA
Experimental: (§1) Human lymphoblastoid Jurkat T cells were grown at 37° C. in a 5% CO2 atmosphere in RPM1 1640 medium (GIBCO BRL, Gaithersburg, Md., United States of America) supplemented with 10% fetal calf serum (FCS, Hyclone Europe Ltd, United Kingdom), 2 mM glutamine and antibiotics according to the method described by A. Rossi et al.^48 The test compound was stored as a 100% ethanolic stock solution (100 mM) or in dimethylsulfoxide (100 mM) and diluted to the appropriate concentration in culture medium at the time of use. Cells were treated with different concentrations of test compound for 1 hour and then stimulated with 12-O-tetradecanoylphorbol-13-acetate (TPA, 25 ng/ml), which is a strong inducer of NF-κB. Control cells received an equal amount of control diluent. After 3 hours, whole-cell extracts were prepared and subjected to analysis of DNA-binding activity by EMSA (Electrophoretic Mobility Shift Assay) for detection of HSF or NF-κB activation, according to the method described by A. Rossi et al.^48
(§2) Specificity of protein-DNA complexes was verified by immunoreactivity with polyclonal antibodies specific for p65 (Rel A) or for HSF-1, for NF-κB and HSF respectively. Quantitative evaluation of NF-κB- and HSF-DNA complex formation was determined by Molecular Dynamics PhosphorImager (MDP) analysis and was expressed in arbitrary units, as described by A. Rossi et al.^49 The results for (−)-Δ^12,14-15-deoxy-PG-J2 are shown in FIG. 1.

[2] = tested on: parainfluenza Sendai virus (SV); assay: Sendai virus replication in 37RC cells, virus yield by HAU titration; assay type: cell-based; details: for IC50: read-out: ID50 (50% inhibitory dose/concentration)
Experimental: (§3) Monkey kidney 37RC cells were grown at 37° C. under the conditions described above for human lymphoblastoid Jurkat T cells. The parainfluenza Sendai virus (SV) was grown in the allantoic cavity of 10 day-old embryonated eggs. Viral titre was expressed in haemagglutinating units (HAU) per ml; […]. Virus yield at 24 hours after infection was determined in the supernatant of infected cells by HAU titration.
(§4) The ID50 (the 50% inhibitory dose/concentration) value at 24 hours and the TD100 (the dose or concentration at which a tested compound is 100% toxic to uninfected cells, determined visually by microscopy) for both (−)-Δ^12,14-15-deoxy-PG-J2 and for compound CTC-150 were measured and the following results were obtained.

[3] = tested on: Monkey kidney 37RC cells; assay type: cell-based
Experimental: as §3, §4

[4] = tested on: HSF; assay: EMSA of HSF DNA-binding activity in TPA-stimulated Jurkat T cells; assay type: cell-based, Human; details: 1 hour pre-treatment, TPA 25 ng/ml, extracts after 3 hours
Experimental: as §1, with “After 3 hours, whole-cell extracts were prepared and subjected to analysis of DNA-binding activity by EMSA (Electrophoretic Mobility Shift Assay) for detection of HSF or NF-κB activation, according to the method described by A. Rossi et al.^48” left out
as §2

SMILES	NF-κB inhibition (in words) [1]	inhibition of Sendai virus replication (in words) ([2]; 37RC cells, virus yield at 24 hours)	IC50 ([2]; virus yield at 24 hours after infection, 37RC cells, 5 HAU/10^5 cells) [nM]	TD100 (concentration at which compound is 100% toxic to uninfected cells) ([3]; uninfected 37RC cells, visually by microscopy) [µM]	concentration required to give an HSF activation to 200% of its original level [4] [µM]	IC50 ([1]; Homo sapiens, 1 hour pre-treatment, TPA 25 ng/ml, extracts after 3 hours, read-out: concentration required to give an NF-κB inhibition to 50% of its original level (IC50)) [nM]	IC50 ([2]; Respirovirus muris, 24 h) [nM]	antiviral activity relative to (−)-Δ^12,14-15-deoxy-PG-J2 (times more active) ([2]; ratio of ID50 values, Sendai virus in 37RC cells)	TD100 (concentration at which compound is 100% toxic to uninfected cells) ([3]; monkey) [µM]
CCCCC/C=C/C=C1/C(=O)C=CC1C/C=C\CCCC(=O)O (stereo not drawn) [(−)-Δ^12,14-15-deoxy-PG-J2, reference compound]	potent inhibitor of NF-κB	potent inhibitor of Sendai virus replication	3000	50					
CC1C=CC(=O)/C1=C/c1ccccc1 (stereo not shown) [CTC-150, 4-methyl-5-[1-phenyl-meth-(E)-ylidene]-cyclopent-2-enone]	potent inhibitor of NF-κB				0.02	7000	700	over 4	>50
